Experimental data from patent publication US12509460B2 (Skyhawk Therapeutics, Inc., priority 2019, dated 2025).
Where two headings read alike, the source gives them in different places.

How the values were obtained:
[1] = tested on: SMN protein in spinal muscular atrophy (SMA) patient fibroblasts (GM03813, Coriell); experiment: SMN protein assay, Mesoscale Discovery (MSD); assay type: cell-based, human; settings: for EC50: read-out: SMN2 protein EC50
How it was run: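 SMA patient fibroblasts (GM03813) seeded at 7000 cells/well and exposed to compound at 2.5 μM to 0.6 nM for 48 hours. Lysates assayed for SMN by MSD immunoassay, with absolute SMN amount calculated from a per-plate SMN standard curve (1 μg/ml to 19.5 pg/ml).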

[2] = tested on: MDR1-MDCK cell monolayers; settings: dog, MDCK-MDR1, 120 min, 5 μM, pH 7.4
[3] = tested on: mHTT protein in GM04724 (CAG 70/20) Huntington's disease patient lymphoblast cells; experiment: mHTT protein assay, 2B7-MW1 assay via Mesoscale Discovery (MSD); assay type: cell-based, human
How it was run: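 Patient lymphoblasts treated 48 h with compound from 10 μM to 0.6 nM. mHTT quantified by MSD 2B7-MW1 immunoassay, whose signal depends on polyQ expansion and HTT size. Viability measured on a replicate plate by CellTiter Glo.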

MDR1 [4] = experiment: in vitro; settings: dog, MDCK-MDR1, pH 7.4
MDR1 (P-gp) [5] = experiment: in vitro; settings: dog, MDCK-MDR1, pH 7.4
[6] = Quantitative splicing assay (HTT), qPCR; assay type: cell-based, human; settings: Homo sapiens, GM04724, 24 h, GM04724 lymphoblasts, read-out: HTT Splicing: E49-50 EC50
How it was run: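 Patient lymphoblasts (50,000 cells/well) dosed immediately after plating for 24 h at 2.5 uM to 0.15 nM in 0.1% DMSO. Lysed, cDNA made directly from cells, and inclusion of the intron 49 cryptic exon quantified by TaqMan qPCR.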

[7] = tested on: SMN FL and SMN Δ7 in spinal muscular atrophy (SMA) patient fibroblasts (GM03813, Coriell); experiment: Quantitative splicing assay (SMN), qPCR; assay type: cell-based, human; settings: Homo sapiens, Fibroblast, 24 h, read-out: SMN2 Splicing FL EC50
Procedure: Spinal muscular atrophy (SMA) patient fibroblasts (GM03813, Coriell) are plated in 96-well plates at 50,000 cells/well. […] Treated cells are lysed and cDNA synthesized using the Fast Advanced Cells-to-Ct kit (Thermofisher A35378) according to the manufacturer's instructions. 2 μL of each cDNA are used in qPCR reactions. […] Reactions are run in a Quant Studio 6 qPCR instrument with default settings.

MDR1 [8] = experiment: Blood-brain-barrier (BBB) penetration potential via MDCK-MDR1 permeability assay; settings: dog, MDCK-MDR1, pH 7.4, MDCK-MDR1: Efflux
MDR1 (P-gp) [9] = experiment: as above; settings: dog; for Papp A→B at 120 min, 5 μM: MDCK-MDR1, pH 7.4, MDCK-MDR1: Papp A-B; for Papp B→A at 120 min, 5 μM: MDCK-MDR1, pH 7.4, MDCK-MDR1: Papp B-A
[10] = tested on: MDR1-MDCK cell monolayers; experiment: as above
[11] = SMA patient fibroblasts GM03813, 48 hours, MSD
[12] = GM04724 Huntington's disease patient lymphoblasts
[13] = SMA patient fibroblasts (GM03813), 48 hours
[14] = GM04724 (CAG 70/20) Huntington's disease patient lymphoblasts
[15] = SMA patient fibroblasts GM03813, 24 h, qPCR

| Compound | SMN2 protein EC50 [1, 11] | MDCK-MDR1: % Recov A-B [2] [%] | MDCK-MDR1: % Recov B-A [2] [%] | mHTT protein EC50 [3, 12] | efflux ratio at 120 min, 5 μM (MDR1 [4]) | Papp A→B at 120 min, 5 μM (MDR1 (P-gp) [5]) [×10⁻⁶ cm/s] | Papp B→A at 120 min, 5 μM (MDR1 (P-gp) [5]) [×10⁻⁶ cm/s] | also measured |
| --- | --- | --- | --- | --- | --- | --- | --- | --- |
| CN(C)C(=O)c1cc(O)c(-c2ccc(N(C)[C@H]3C[C@@H]4CC[C@@H](N4)[C@H]3F)nn2)cc1F (single isomer, unassigned) [Compound 53B] | E (501 ≤ E ≤ 10.000) | 100 | 112 | E (501 ≤ E ≤ 10.000) | 153 | 0.27 | 41.8 |  |
| CN(c1ccc(-c2cc3cccnc3cc2O)nn1)[C@H]1C[C@@H]2CC(F)(F)[C@H](C1)N2 [Compound 45B, 6-(6-(((1R,3S,5S)-6,6-difluoro-8-azabicyclo[3.2.1]octan-3-yl)(methyl)amino)pyridazin-3-yl)quinolin-7-ol] | E (501 ≤ E ≤ 10.000) | 95 | 111 | E (501 ≤ E ≤ 10.000) | 4 | 10.2 | 45.3 |  |
| CN1[C@@H]2CC[C@H]1[C@H](F)[C@H](N(c1ccc(-c3cc4oc(C(=O)N5CCC5)cc4cc3O)nn1)C1CC1)C2 (single isomer, unassigned) [Compound 92A] | E (501 ≤ E ≤ 10.000) | 93 | 88 | E (501 ≤ E ≤ 10.000) | 47 | 1.23 | 57.8 |  |
| CN(C)C(=O)c1cc(O)c(-c2ccc(N(C)[C@@H]3C[C@H]4CC[C@H](N4)[C@@H]3F)nn2)cc1F (single isomer, unassigned) [Compound 53A] | E (501 ≤ E ≤ 10.000) | 96 | 114 | E (501 ≤ E ≤ 10.000) | 127 | 0.32 | 41 |  |
| CN(c1ccc(-c2cc3cc[nH]c(=O)c3s2)nn1)[C@@H]1C[C@H]2CC[C@H](N2)[C@@H]1F (single isomer, unassigned) [Compound 66A] | E (501 ≤ E ≤ 10.000) | 93 | 100 | E (501 ≤ E ≤ 10.000) | 51 | 0.09 | 4.4 |  |
| CN1[C@@H]2CC[C@H]1[C@H](F)[C@H](N(c1ccc(-c3cc4ncn(CC(F)(F)F)c(=O)c4cc3O)nn1)C1CC1)C2 (single isomer, unassigned) [Compound 111A] |  | 90 | 83 |  | 45 | 0.89 | 44.3 | SMN2 protein EC50 [1, 13]: E (501 ≤ E ≤ 10.000); mHTT protein EC50 [3, 14]: E (501 ≤ E ≤ 10.000) |
| CN(c1ccc(-c2cc3ncn(CC(F)(F)F)c(=O)c3cc2O)nn1)[C@@H]1C[C@H]2CCC[C@@H]([C@@H]1F)N2C (single isomer, unassigned) [Compound 109A] |  | 76 | 81 |  | 23 | 2.72 | 63.3 | SMN2 protein EC50 [1, 13]: E (501 ≤ E ≤ 10.000); mHTT protein EC50 [3, 14]: E (501 ≤ E ≤ 10.000) |
| CNC(=O)c1cc(O)c(-c2ccc(N(C)[C@@H]3C[C@H]4CC[C@@H]([C@@H]3F)N4C)nn2)cc1F (single isomer, unassigned) [Compound 96A] | E (501 ≤ E ≤ 10.000) | 100 | 114 | E (501 ≤ E ≤ 10.000) | 18 | 2.97 | 53.7 |  |
| CN(c1ccc(-c2cnc(-c3cnn(C)c3)nc2O)nn1)[C@H]1C[C@@H]2CC[C@@H](N2)[C@H]1F (racemic) [Compound 122, rac-5-(6-(((1R,2R,3S,5S)-2-fluoro-8-azabicyclo[3.2.1]octan-3-yl)(methyl)amino)pyridazin-3-yl)-2-(1-methyl-1H-pyrazol-4-yl)pyrimidin-4-ol] |  | 86 | 98 |  | > 3 | < 0.2 | 0.6 | SMN2 protein EC50 [1, 13]: E (501 ≤ E ≤ 10.000) |
| Cc1cnc(-c2ccc(-c3ccc(N(C)[C@@H]4C[C@H]5CCC[C@H](N5)[C@@H]4F)nn3)c(O)c2)o1 [Compound 16A, 2-(6-(((1S,2S,3R,5R)-2-fluoro-9-azabicyclo[3.3.1]nonan-3-yl)(methyl)amino)pyridazin-3-yl)-5-(5-methyloxazol-2-yl)phenol] |  |  |  |  |  |  |  | EC50 [1, 11]: 101 to 500 nM; EC50 [3, 12]: 16 to 50 nM; EC50 ([6]; qPCR): 16 to 50 nM; EC50 [7, 15]: 101 to 500 nM; efflux ratio at 120 min, 5 μM (MDR1 [8]; efflux ratio): 7; Papp A→B at 120 min, 5 μM (MDR1 (P-gp) [9]; A-B direction): 2.31 ×10⁻⁶ cm/s; Papp B→A at 120 min, 5 μM (MDR1 (P-gp) [9]; B-A direction): 15.2 ×10⁻⁶ cm/s; MDCK-MDR1: % Recov A-B ([10]; A-B direction): 31%; MDCK-MDR1: % Recov B-A ([10]; B-A direction): 41% |
| COc1cnc(-c2ccc(-c3ccc(N(C)[C@H]4C[C@@H]5CCC[C@@H](N5)[C@H]4F)nn3)c(O)c2)cn1 [Compound 29B, 2-(6-(((1R,2R,3S,5S)-2-fluoro-9-azabicyclo[3.3.1]nonan-3-yl)(methyl)amino)pyridazin-3-yl)-5-(5-methoxypyrazin-2-yl)phenol] |  |  |  |  |  |  |  | EC50 [1, 11]: 0.01 to 15 nM; EC50 [3, 12]: 0.01 to 15 nM; EC50 ([6]; qPCR): 16 to 50 nM; EC50 [7, 15]: 501 to 10000 nM; efflux ratio at 120 min, 5 μM (MDR1 [8]; efflux ratio): 4; Papp A→B at 120 min, 5 μM (MDR1 (P-gp) [9]; A-B direction): 1.54 ×10⁻⁶ cm/s; Papp B→A at 120 min, 5 μM (MDR1 (P-gp) [9]; B-A direction): 5.63 ×10⁻⁶ cm/s; MDCK-MDR1: % Recov A-B ([10]; A-B direction): 21%; MDCK-MDR1: % Recov B-A ([10]; B-A direction): 48% |
| Cc1nc2cc(-c3ccc(N(C)[C@H]4C[C@@H]5CC[C@@H](N5)[C@H]4F)nn3)c(O)cc2s1 [Compound 115B, 5-(6-(((IR,2R,3S,5S)-2-fluoro-8-azabicyclo[3.2.1]octan-3-yl)(methyl)amino)pyridazin-3-yl)-2-methylbenzo[d]thiazol-6-ol] |  |  |  |  |  |  |  | EC50 [1, 13]: 0.01 to 15 nM; EC50 [3, 14]: 0.01 to 15 nM; EC50 [6]: 0.01 to 15 nM; EC50 ([7]; SMA patient fibroblasts (GM03813)): 0.01 to 15 nM; efflux ratio at 120 min, 5 μM (MDR1 [8]): 7; Papp A→B at 120 min, 5 μM (MDR1 (P-gp) [9]; A-B): 6.4 ×10⁻⁶ cm/s; Papp B→A at 120 min, 5 μM (MDR1 (P-gp) [9]; B-A): 42.6 ×10⁻⁶ cm/s; MDCK-MDR1: % Recov A-B ([10]; A-B): 71%; MDCK-MDR1: % Recov B-A ([10]; B-A): 88% |
